Tests used:
human GRP receptor (BB2) = target: T1, human GRP receptor (BB2) (Homo sapiens, UniProt P30550); assay: BB2 binding assay ([125I][Tyr4]bombesin, CHO-K1 cell membranes)
T1 construct: expressed in transfected cells; host or cells: CHO-K1
Protocol: (§1) In the following experiments, measurement of BB1 and BB2 binding was as follows. CHO-K1 cells stably expressing cloned human NMB (for (BB1 assay) and GRP receptors (for BB2 assay) were routinely grown in Ham's F12 culture medium supplemented with 10% foetal calf serum and 2 mM glutamine. For binding experiments, cells were harvested by trypsinization, and stored frozen at −70° C. in Ham's F12 culture medium containing 5% DMSO until required. On the day of use, cells were thawed rapidly, diluted with an excess of culture medium, and centrifuged for 5 minutes at 2000 g. Cells were resuspended in 50 mM Tris-HCl assay buffer (pH 7.4 at 21° C., containing 0.02% BSA, 40 μg/mL bacitracin, 2 μg/mL chymostatin, 4 μg/mL leupeptin, and 2 μM phosphoramidon), counted, and polytronned (setting 5, 10 sec) before centrifuging for 10 minutes at 28,000 g. The final pellet was resuspended in assay buffer to a final cell concentration of 1.5×10^5/mL. For binding assays, 200 μL aliquots of membranes were incubated with [^125I][Tyr^4]bombesin (<0.1 nM) in the presence and absence of test compounds (final assay volume 250 μL) for 60 minutes and 90 minutes for NMB and GRP receptors, respectively. Nonspecific binding was defined by 1 μM bombesin. Assays were terminated by rapid filtration under vacuum onto Whatman GF/C filters presoaked in 0.2% PEI for >2 hours, and washed 50 mM Tris-HC (pH 6.9 at 21° C.; 6×1 mL). Radioactivity bound was determined using a gamma counter.
(§2) All competition data was analysed using nonlinear regression utilizing iterative curve-plotting procedures in Prism® (GraphPad Software Inc., San Diego, USA). IC50 values were corrected to Ki values using the Cheng-Prusoff equation (Cheng Y., PrusoffW. H., Biochem. Pharmacol. 22: 3099-3108, 1973).

human NMB receptor (BB1) = target: T2, human NMB receptor (BB1) (Homo sapiens, UniProt P28336); assay: BB1 binding assay ([125I][Tyr4]bombesin, CHO-K1 cell membranes)
T2 construct: expressed in transfected cells; host or cells: CHO-K1
Protocol: as §1, §2

conscious male rat = assay: Penile intracavernosal pressure in the conscious male rat (telemetry); assay type: in vivo
Protocol: In addition to treating women with FSD, bombesin antagonists will be useful in treating male erectile dysfunction (MED. Both the non-selective BB1/2 antagonists (Compound 1; 10 mg/kg sc) and the selective BB I receptor antagonist (Compound 3; 15 mg/kg sc) is pro-erectile in a conscious rat model of penile erection (FIGS. 24 and 25). Erectile responses were recorded by measuring intracavemosal pressure using surgically implanted telemetric device. The specific details the surgical procedures, data acquisition and analysis can be found in detail in Bernabe 1999.
Compound 1 and compound 3 were dissolved in 50% O-cyclodextrin in saline. They were administered at a dose of 15 mg/kg subcutaneously (sc). […] These increases equate to penile erection. Both Compounds 1 and 3 induced a number of erections in a similar manner to those observed with apomorphine or melanotan-II—both of which are clinically proven agents that are effective in the treatment of MED. Moreover the amplitude of the increases observed were similar to those observed with apomorphine or melanotan-II. The mechanism of action is thought to be similar to the effects on female genital flow ie CNS potentiation of the descending neuronal pathways that control penile erection.

Male New Zealand rabbits = assay: Pelvic nerve-stimulated penile intracavernosal pressure, anaesthetised rabbit model of erection; assay type: in vivo; details: Compound 3 (10 mg/kg sc) concomitant with selective PDE5 inhibitor (1 mg/kg iv), compared with same dose of Compound 3 alone
Protocol: (§3) Male New Zealand rabbits (˜2.5 kg) were pre-medicated with a combination of Medetomidine (Domitor®) 0.5 ml/kg i.m., and Ketamine (Vetalar®) 0.25 ml/kg i.m. whilst maintaining oxygen intake via a face mask. The rabbits were tracheotomised using a Portex™ uncuffed endotracheal tube 3 ID., connected to ventilator and maintained at a ventilation rate of 30-40 breaths per minute, with an approximate tidal volume of 18-20 ml, and a maximum airway pressure of 10 cm H2O. Anaesthesia was then switched to Isoflurane and ventilation continued with O2 at 2 l/min. The right marginal ear vein was cannulated using a 23G or 24G catheter, and Lactated Ringer solution perfused at 0.5 ml/min. The rabbit was maintained at 3% Isoflurane during invasive surgery, dropping to 2% for maintenance anaesthesia. The left jugular vein was exposed, isolated and then cannulated with a PVC catheter (17G) for the infusion of drugs and compounds.
The left groin area of the rabbit was shaved and a vertical incision was made approximately 5 cm in length along the thigh. […] Systolic and diastolic pressures were measured, and the mean arterial pressure calculated using the formula (diastolic ×2+systolic)[…]. Heart rate was measured via the pulse oxymeter and Po-ne-mah data acquisition software system (Ponemah Physiology Platform, Gould Instrument Systems Inc). […]

[1] = system: Female New Zealand rabbits; assay: Pelvic nerve-stimulated female genital blood flow, anaesthetised rabbit model of sexual arousal; assay type: in vivo; details: 15 mg/kg sc
Protocol: as §3, with “Female” for “Male”, “(2.5” for “(˜2.5”, “im.,” for “i.m.,”, “anaesthesia.” for “anaesthesia. The left jugular vein was exposed, isolated and then cannulated with a PVC catheter (17G) for the infusion of drugs and compounds.”
The left groin area of the rabbit was shaved and a vertical incision was made approximately 5 cm in length along the thigh. […] Systolic and diastolic pressures were measured, and the mean arterial pressure calculated using the formula (diastolic ×2+systolic)÷3. Heart rate was measured via the pulse oxymeter and Po-ne-mah data acquisition software system (Ponemah Physiology Platform, Gould Instrument Systems Inc). […] A frequency response curve was determined at the start of each experiment in order to determine the optimum frequency to use as a sub-maximal response, normally 4 Hz. […]

T1 sequence (P30550 whole entry): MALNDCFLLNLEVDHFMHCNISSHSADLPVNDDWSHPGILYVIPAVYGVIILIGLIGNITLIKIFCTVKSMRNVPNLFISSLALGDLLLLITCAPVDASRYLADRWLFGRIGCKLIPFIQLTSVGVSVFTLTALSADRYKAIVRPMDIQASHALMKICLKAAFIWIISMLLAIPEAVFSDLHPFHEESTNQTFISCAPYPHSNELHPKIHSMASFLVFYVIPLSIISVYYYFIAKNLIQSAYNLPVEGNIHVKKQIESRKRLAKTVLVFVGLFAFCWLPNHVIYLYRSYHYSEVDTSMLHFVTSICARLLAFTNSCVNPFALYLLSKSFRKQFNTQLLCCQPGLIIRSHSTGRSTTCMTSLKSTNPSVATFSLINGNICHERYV
T2 sequence (P28336 whole entry): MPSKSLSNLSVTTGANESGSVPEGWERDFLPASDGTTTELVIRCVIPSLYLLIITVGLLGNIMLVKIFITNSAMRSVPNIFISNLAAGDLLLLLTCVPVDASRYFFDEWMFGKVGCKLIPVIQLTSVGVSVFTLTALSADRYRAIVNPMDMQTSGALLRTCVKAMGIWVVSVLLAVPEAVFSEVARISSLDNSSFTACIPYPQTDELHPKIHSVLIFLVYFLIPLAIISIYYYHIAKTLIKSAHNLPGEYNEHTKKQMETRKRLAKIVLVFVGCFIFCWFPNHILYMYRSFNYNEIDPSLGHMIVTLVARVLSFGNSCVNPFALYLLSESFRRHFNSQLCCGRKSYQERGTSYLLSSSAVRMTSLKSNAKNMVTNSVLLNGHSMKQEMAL

Compound | IC50 (human GRP receptor (BB2)) | IC50 (human NMB receptor (BB1)) | penile erection (erectile response) (conscious male rat; Compound 1 10 mg/kg sc, Compound 3 15 mg/kg sc, conscious rat model) | intracavernosal pressure (conscious male rat; one hour after 10 mg/kg sc Compound 1, 45 minutes after 15 mg/kg sc compound 3, conscious rat) | pelvic nerve-stimulated intracavernosal pressure (ICP), combination with PDE5 inhibitor (Male New Zealand rabbits) | pelvic-nerve stimulated (PNS) increases in genital (vaginal and clitoral) blood flow [1]
C[C@@](Cc1c[nH]c2ccccc12)(NS(=O)(=O)c1cccc(C(F)(F)F)c1)C(=O)NCC1(c2ccccn2)CCCCC1 [Example 124] | 2250 nM | 440 nM | – | – | – | –
C[C@@](Cc1c[nH]c2ccccc12)(NS(=O)(=O)c1cccc([N+](=O)[O-])c1)C(=O)NCC1(c2ccccn2)CCCCC1 [Example 121] | 1960 nM | 208 nM | – | – | – | –
C[C@@](Cc1c[nH]c2ccccc12)(NS(=O)(=O)c1ccc(F)c(Cl)c1)C(=O)NCC1(c2ccccn2)CCCCC1 [Example 156] | 1220 nM | 284 nM | – | – | – | –
C[C@@](Cc1c[nH]c2ccccc12)(NC(=O)Nc1ccc([N+](=O)[O-])cc1)C(=O)NCC1(c2ccc(N)cc2)CCCCC1 [Compound 3, (2S)-N-{[1-(4-aminophenyl)cyclohexyl]methyl}-3-(1H-indol-3-yl)-2-methyl-2-{[(4-nitroanilino)carbonyl]amino}propanamide] | – | – | pro-erectile | significant increases in intracavernosal pressure | marked enhancement | potent enhancer
